Results from patent US8795740B2, “Drip tray tablet” (Novapharm Research (Australia) Pty Ltd, priority 2003, dated 2014).

Test: preservation of enzyme activity in the tablet in use
Assay type: physicochemical
Conditions: in the non-dissolved part of the tablet
Excerpt: A preferred boron compound is borax, which the present inventors have found acts to preserve the enzyme activity in use for at least 3 months in the non-dissolved part of the tablet. The present invention thus provides matching between the enzyme activity and tablet dissolution parameters.

## O=BOB(O)OB(O)OB=O [borax, Borax]
  time for which enzyme activity is preserved in use: at least 3 months
